{
  "source": "patent US9504662B2",
  "about": "“Composition for skin improvement comprising hexamidines and retinoids” (AMOREPACIFIC CORPORATION, priority 2009, dated 2016)",
  "origin": "cited, not measured here",
  "conditions": "4 μM of retinol vs 100 nM of Isotretinoin; general statement, no method given",
  "data": [
    {"compound": "CC1=C(/C=C/C(C)=C/C=C/C(C)=C/CO)C(C)(C)CCC1", "note": "[retinol]", "values": [
      {"measurement": "sebum-inhibiting effect", "value": "substantially has the same degree of sebum-inhibiting effect as 100 nM of Isotretinoin"}
    ]}
  ]
}
